Reference: patent US8557527B2 (HistoRx, Inc., priority 2008, dated 2013)

Key:
[1] = system: chronic myelogenous leukemia and gastrointestinal stromal tumors; details: patients with chronic myelogenous leukemia and gastrointestinal stromal tumors; cited from earlier work
[2] = system: Newly Diagnosed Glioblastoma (GBM); details: Gefitinib+Radiation vs historical controls; cited from earlier work
GBM = assay: Clinical outcome of RT+Gefitinib (RTOG 0211, Array 19) versus RT alone (historical, Array 8) patients stratified by AQUA biomarker level

Cc1ccc(NC(=O)c2ccc(CN3CCN(C)CC3)cc2)cc1Nc1nccc(-c2cccnc2)n1 [STI-571]
efficacy as therapy [1]: highly effective | toxicity as therapy [1]: non-toxic

COc1cc2ncnc(Nc3ccc(F)c(Cl)c3)c2cc1OCCCN1CCOCC1 [Gefitinib]
survival compared to historical controls [2]: survival was not significantly improved | overall survival, RTOG 0211 versus historical controls (RT alone) (GBM; patients with elevated ratio of cytoplasmic to nuclear pAKT): improved overall survival | overall survival times, Gefitinib+RT versus RT only (GBM; patients with intermediate-to-high levels of Src expression): significantly worse overall survival times | clinical outcome, RT+Gefitinib versus RT alone (GBM; patients with lower levels of PTEN expression, p=0.08): trend towards improved outcome
